Measurements published in article PMC7094215, “Synthesis and Evaluation of Antileishmanial and Cytotoxic Activity of Benzothiopyrane Derivatives” (Molecules, 2020).

Columns and labels:
[1] = Cytotoxic activity, MTT method; assay type: cell-based; conditions: human, LC50
Protocol: Cytotoxicity of the compounds was evaluated on human monocytes (U-937 ATCC CRL-1593.2) in an exponential growth phase and adjusted at 1 × 10^5 cells/mL in RPMI-1640 enriched with 10% fetal bovine serum (FBS). One hundred microliters of cell suspension were dispensed in each well of a 96-wells microplate, and then 100 μL of 200-50-12.5 and 3.125 μg/mL concentration of each compound or standard drug (amphotericin B) were added dissolved in PBS with 0.5% DMSO. Cell exposed to compounds or standard drugs were incubated 72 h at 37 °C and 5% of CO2. Cytotoxic activity of each compound was determined according to the effect on the cell viability by the MTT microenzymatic method in which 3-(4,5-dimethylthiazol-2-yl)-2,5-diphenyltetrazolium bromide is reduced to a purple formazan product by mitochondrial enzyme succinate dehydrogenase. Thus, 10 μL/well of MTT solution (5 mg/mL) was added to each well of exposed and unexposed cells, and plates were incubated at 37 °C, 5% CO2 during 3 h. The reaction was stopped by adding 100 μL/well of isopropanol with 50% and 10% of SDS (sodium dodecyl sulfate). The concentration of formazan was determined spectrophotometrically at 570 nm (Varioskan, Thermo, Waltham, MA, USA) and intensity of color (absorbance) was registered as O.D. Cells exposed to control drug (amphotericin B) were used as control for toxicity (positive control) while cell incubated in the absence of any compound or drug were used as control for viability (negative control). Non-specific absorbance was corrected by subtracting absorbance (O.D) of the blank. Determinations were done by triplicate in at least two independent experiments.
Cytotoxicity was determined according to viability and mortality percentages obtained for each experimental condition (synthesized compounds, amphotericin B, and culture medium). Results were expressed as the mean lethal concentrations (LC50), the concentration necessary to kill 50% of cells, calculated by the parametric method of linear regression that permits doses-response analysis (Probit analysis).
Initially, viability percentages were calculated by Equation (1), where the O.D of control well, corresponds to 100% of viability:(1) % Viability=(O.D. exposed cells/O.D. unexposed cells)×100
Then, the percentage of cell growth inhibition was calculated using Equation (2):(2) % Inhibition =100−(% Viability)
The toxicity was defined according to LC50 values, using the follow scale: Toxic; LC50 < 100 μM; moderately toxic; LC50 > 100 μM and < 200 μM and potentially nontoxic; LC50 > 200 μM.

[2] = test system: intracellular amastigotes of L. panamensis (MHOM/CO/87/UA140-EGFP strain); test: In vitro antileishmanial activity on intracellular amastigotes (GFP, flow cytometry); assay type: cell-based, Leishmania (V) panamensis; conditions: for SI (Selectivity Index = LC50/EC50): LC50 U-937 / EC50 L. panamensis amastigotes; for EC50: intracellular amastigotes in U-937 cells, 72 h exposure, mean ± SD, Probit
Protocol: Antileishmanial activity of compounds was determined according to the ability of the compound to reduce the infection by L. panamensis parasites. For this, the antileishmanial activity was tested on intracellular amastigotes of L. panamensis transfected with the green fluorescent protein gene (MHOM/CO/87/UA140-EGFP strain). Briefly, U-937 human cells at a density of 3 × 10^5 cells/mL in RPMI 1640 and 0.1 μg/mL of PMA (phorbol-12-myristate-13-acetate) were dispensed on 24-wells microplate and then infected with stationary phase growing L. panamensis promastigotes in 15:1 parasites per cell ratio. Plates were incubated at 34 °C and 5% CO2 for 3 h, and then cells were washed twice with phosphate buffer solution (PBS) to eliminate not internalized parasites. Fresh RPMI-1640 was added into each well (1 mL), and plates were incubated again. After 24 h of infection, the RPMI-1640 medium was replaced by fresh culture medium containing each compound at four serial dilutions (50, 12.5, 3.125 and 0.78 μg/mL) and plates were then incubated at 37 °C and 5% CO2 during 72 h, then, cells were removed from the bottom plate with 100 µL of EDTA/trypsin (250 mg) solution. The cells were centrifuged at 1100 rpm during 10 min at 4 °C, the supernatant was discarded, and cells were washed with 1 mL of cold PBS and centrifuged at 1100 rpm for 10 min at 4 °C. Cells were washed two times employing PBS, as previously, and after the last wash, the supernatant was discarded, and cells were suspended in 500 μL of PBS.
Cells were analyzed by flow cytometry employing a flow cytometer (FC 500MPL, Cytomics, Beckman Coulter. Pasadena, CA, USA) reading at 488 nm (exciting) and 525 nm (emitting) over an argon laser and counting 10,000 events. Infected cells were determined according to the events for green fluorescence (parasites). All determinations for each compound and standard drug were carried out by triplicate, in two experiments. Infected cells exposed to control drug (amphotericin B) were used as the control for antileishmanial activity (positive control), while infected cells incubated in the absence of any compound or drug were used as another control for infection (negative control). Nonspecific fluorescence was corrected by subtracting the fluorescence of unstained cells. Determinations were done by triplicate in at least two independent experiments.
The antileishmanial activity was determined according to the reduction of the percentage of fluorescent parasites determined according to the median fluorescence intensity (MFI) obtained for each experimental condition by cytometry. The parasite values for each concentration of compound were calculated by Equation (3), where the % of parasites in control well, corresponds to 100% of parasites:(3) % Parasites=(MFI exposed parasites/MFI unexposed parasites)×100
Then, the inhibition percentage was calculated with Equation (4):(4) % Inhibitors of Parasites=100−(% Parasites)
Results of antileishmanial activities were expressed as the median effective concentrations (EC50) measured by Probit method.

[3] = Leishmania panamensis, U-937, 72 h

SMILES | CC50 at 72 h [1] | SI (Selectivity Index = LC50/EC50) [2] | EC50 [2, 3] | EC50 [2] | antileishmanial activity (in words) ([2]; intracellular amastigotes of L. panamensis)
O=C1CC(C(=O)O)Sc2ccccc21 (racemic) [Compound 20a, 4-Oxothiochromane-2-carboxylic acid] | 133 ± 67.7 µM | 0.3 | 414 ± 58.5 µM |  | 
O=C1CC(C(=O)O)Sc2ccccc21 (stereo not drawn) [20a (+), 4-oxo-thiochroman-2-carboxylic acid] | > 48.1 µM | > 0.1 |  | 505 ± 133 µM | 
C[C@@H]1[C@H](O)[C@@H](C)/C=C/C=C/C=C/C=C/C=C/C=C/C=C/[C@H](O[C@@H]2O[C@H](C)[C@@H](O)[C@H](N)[C@@H]2O)C[C@@H]2O[C@](O)(C[C@@H](O)C[C@@H](O)[C@H](O)CC[C@@H](O)C[C@@H](O)CC(=O)O[C@H]1C)C[C@H](O)[C@H]2C(=O)O [Amphotericin B, reference compound] | 56.8 µM |  | 0.05 µM |  | 
N#CC1=Cc2ccccc2SC1 [Compound 8a, 2H-Thiochromene-3-carbonitrile] | 4 ± 0.6 µM | 0.7 |  |  | 
COC(=O)C1=Cc2ccccc2SC1 [Compound 8b, Methyl 2H-thiochromene-3-carboxylate] | 352 ± 47.5 µM | 2.8 | 126 ± 15.5 µM |  | practically inactive
CC(=O)C1=Cc2ccccc2SC1c1ccccc1 (stereo not drawn) [Compound 8c, 1-(2-Phenyl-2H-thiochromen-3-yl)ethan-1-one] | 6 ± 0.4 µM | < 2.3 | > 2.6 µM |  | 
CCCCCC1Sc2ccccc2C=C1C(C)=O (stereo not drawn) [Compound 8d, 1-(2-Pentyl-2H-thiochromen-3-yl)ethan-1-one] | 25.7 ± 4.6 µM | 3.1 |  |  | 
O=C(C1=Cc2ccccc2SC1c1ccccc1)C(F)(F)F (stereo not drawn) [Compound 8e] | 21.2 ± 3.4 µM | 0.7 | 29.6 ± 6.2 µM |  | 
N#CC1CSc2ccccc2C1=O (stereo not drawn) [Compound 9a, 4-Oxo-thiochromane-3-carbonitrile] | 770 ± 49.7 µM | 7.2 | 108 ± 34.3 µM |  | 
COC(=O)C1CSc2ccccc2C1=O (stereo not drawn) [Compound 9b + 10b, Methyl 4-oxo-thiochromane-3-carboxylate] | 485 ± 45.4 µM | 3.6 | 134 ± 27 µM |  | 
CCCCCC1Sc2ccccc2C(O)=C1C(C)=O (stereo not drawn) [Compound 10d, 1-(4-Hydroxy-2-pentyl-2H-thiochromen-3-yl)ethan-1-one] | 51 ± 9 µM | 4.1 | < 20 µM | 12.5 ± 3.3 µM | 
O=CC1=Cc2ccccc2SC1c1ccccc1 (stereo not drawn) [Compound 13a, 2-Phenyl-2H-thiochromene-3-carbaldehyde] | 54.7 ± 3.2 µM | < 2.3 | > 23.8 µM |  | 
O=CC1=Cc2ccccc2SC1c1ccc(F)cc1 (stereo not drawn) [Compound 13b, 2-(4-Fluorophenyl)-2H-thiochromene-3-carbaldehyde] | 9.6 ± 0.4 µM | 0.3 | 29.7 ± 4.4 µM |  | 
O=CC1=Cc2ccccc2SC1c1ccc(Cl)cc1 (stereo not drawn) [Compound 13c, 2-(4-Chlorophenyl)-2H-thiochromene-3-carbaldehyde] | 161 ± 27.9 µM | 4.3 | 37 ± 5.6 µM |  | 
O=CC1=Cc2ccccc2SC1c1ccccc1[N+](=O)[O-] (stereo not drawn) [Compound 13d, 2-(2-Nitrophenyl)-2H-thiochromene-3-carbaldehyde] | 23.9 ± 2.4 µM | 2.6 |  |  | 
O=C(C1=Cc2ccccc2SC1c1ccccc1)c1ccccc1 (stereo not drawn) [Compound 15a, Phenyl(2-phenyl-2H-thiochromen-3-yl)methanone] | > 609 µM |  | 43.9 ± 11.6 µM |  | 
O=C(C1=Cc2ccccc2SC1c1ccc(C(F)(F)F)cc1)c1ccc(Cl)cc1 (stereo not drawn) [Compound 15b, (4-Chlorophenyl)(2-(4-(trifluoromethyl)phenyl)-2H-thiochromen-3-yl)methanone] | 97.2 ± 14.2 µM | 2.6 | 37.9 ± 2.8 µM |  | 
O=C(C1=Cc2ccccc2SC1c1ccc([N+](=O)[O-])cc1)c1ccc(Cl)cc1 (stereo not drawn) [Compound 15c, (4-Chlorophenyl)(2-(4-nitrophenyl)-2H-thiochromen-3-yl)methanone] | 151 ± 18.1 µM | 4.0 | 38.1 ± 11.3 µM |  | 
O=C1CC(C(=O)O)Sc2ccc(F)cc21 (stereo not drawn) [Compound 20b, 6-Fluoro-4-oxo-thiochromane-2-carboxylic acid] | 210 ± 78.7 µM | 0.1 | 3520 ± 3010 µM |  | 
COc1ccc2c(c1)C(=O)CC(C(=O)O)S2 (stereo not drawn) [Compound 20c, 6-Methoxy-4-oxo-thiochromane-2-carboxylic acid] | 76.3 ± 8.6 µM | 0.2 | 494 ± 324 µM |  | 
COc1ccc2c(c1)SC(C(=O)O)CC2=O (stereo not drawn) [Compound 20d, 7-Methoxy-4-oxo-thiochromane-2-carboxylic acid] | 90.4 ± 16.4 µM | 0.3 | 277 ± 101 µM |  | 
CCOC(=O)C1CC(=O)c2ccccc2S1 (stereo not drawn) [Compound 22a, Ethyl 4-oxo-thiochromane-2-carboxylate] | 211.1 ± 0.7 µM | < 3.1 | > 68.5 µM |  | 
CCCCOC(=O)C1CC(=O)c2ccccc2S1 (stereo not drawn) [Compound 22b, Butyl 4-oxo-thiochromane-2-carboxylate] | 231 ± 44.5 µM | < 1.2 | > 189 µM |  | 
CCCCCCOC(=O)C1CC(=O)c2ccccc2S1 (stereo not drawn) [Compound 22c, Hexyl 4-oxo-thiochromane-2-carboxylate] | 213 ± 47.9 µM | < 2.1 | > 103 µM |  | 
CCCCCCCCCCOC(=O)C1CC(=O)c2ccccc2S1 (stereo not drawn) [Compound 22d, Decyl 4-oxo-thiochromane-2-carboxylate] | 140 ± 20.7 µM | < 1.0 | > 144 µM |  | 
CCCCCCNC(=O)C1CC(=O)c2ccccc2S1 (stereo not drawn) [Compound 24a, N-hexyl-4-oxo-thiochromane-2-carboxamide] | 157 ± 9.7 µM | 0.7 | 216 ± 2.5 µM |  | 
CCCCCCCCCCCCNC(=O)C1CC(=O)c2ccccc2S1 (stereo not drawn) [Compound 24b, N-dodecyl-4-oxo-thiochromane-2-carboxamide] | 148 ± 45.4 µM | < 1.8 | > 80 µM |  | 
